“And” between values parts separate entries of the source, which are not always exact repeats. Identical values can stand only once. Like-named read-outs stand apart in the source and are kept apart here.
Assay: Half-life of ADR destruction by UVA light in the presence of test compounds (decrease in absorbance at 480 nm)
Type: physicochemical
[1] = UVA light, 100 μM test compound with 0.5 μM riboflavin
[2] = UVA light, 100 μM test compound alone

Molecule	Half-Life of ADR Destruction, 100 μM Test Compound and 0.5 μM Riboflavin [1]	Half-Life of ADR Destruction, 100 μM Test Compound [2] [min]	Half-Life of ADR Destruction, 100 μM Test Compound and 0.5 μM Riboflavin [min]	Half-Life of ADR Destruction, 100 μM Test Compound [min]
NCc1ccc(O)c(O)c1 [3,4-Dihydroxy Benzylamine]	150.3 min	–	–	–
O=C(c1ccccc1)c1cccnc1C(=O)O [3-Benzoylpyridine-2-carboxylic acid]	43.0 min	43.0	–	–
CC(C)(C)c1cc(C(C)(C)C)c(N)c(C(C)(C)C)c1 [2,4,6-Tri-tert-butyl Aniline]	43.0 min	–	–	–
O=C1CCc2ccccc2N1 [3,4-Dihydro-2(1H)-quinolinone]	–	–	20.1	–
Nc1cccc(Cc2ccccc2)c1 [3-Benzylaniline]	6.54 min	–	–	–
O=C(c1ccccc1)c1ccc[nH]1 [2-Benzoyl pyrrole]	33.5 min	50.2	–	–
O=C(O)CCCc1ccc2ccccc2c1 [4-(2-Naphthyl)butyric acid]	15.1 min	43.0	–	–
O=C1c2ccccc2C(=O)c2cnccc21 [Benz[γ]isoquinoline-5,10-dione]	<0.261 min	<0.355	–	–
c1ccc2c(c1)CCCN2 [1,2,3,4-Tetrahydroquinoline]	100.3 min	–	–	–
COc1cccc2cc[nH]c12 [7-Methoxy Indole]	7.72 min	43.0	–	–
CC(=O)c1cccn1C [2-Acetyl-1-methyl Pyrrole]	50.2 min	–	–	–
O=C(O)c1cccc(C(=O)c2ccccc2)c1 [3-Benzophenone-carboxylic acid]	–	–	15.8	20.1
COc1ccc2[nH]c(C)c(CC(=O)O)c2c1 [5-Methoxy-2-methylindole-3-acetic acid]	4.78 min	25.1	–	–
Nc1ccccc1C(=O)c1ccccc1 [2-Aminobenzophenone]	–	–	16.7	–
c1ccc2c(c1)CCc1ccccc1N2 [Iminodibenzyl]	23.2 min	–	–	–
O=C(O)c1cc2ccccc2oc1=O [Coumarin-3-carboxylic acid]	21.5 min	23.2	–	–
COc1ccc2[nH]c(C)cc2c1 [5-Methoxy-2-methyl Indole]	–	–	7.00	27.4
Cc1ccc(N)cc1CO [3-Amino-6-Methyl Benzyl Alcohol]	16.7 min	–	–	–
Nc1nc2c(ncn2[C@@H]2O[C@H](CO)[C@@H](O)[C@H]2O)c(=O)[nH]1 [Guanosine]	14.3 min	75.3	–	–
COc1ccc2[nH]ccc2c1 [5-Methoxy Indole]	25.1 min and 14.3 min	–	–	–
NC(=O)Cc1c[nH]c2ccccc12 [Indole-3-acetamide]	11.2 min	–	–	–

Molecule	Half-Life of ADR Destruction, 100 μM Test Compound and 0.5 μM Riboflavin [1]	Half-Life of ADR Destruction, 100 μM Test Compound [2] [min]	Half-Life of ADR Destruction, 100 μM Test Compound and 0.5 μM Riboflavin [min]	Half-Life of ADR Destruction, 100 μM Test Compound [min]
OCCc1ccc2ccccc2c1 [2-Naphthaleneethanol]	33.5 min	50.2	–	–
Cc1cc(C(=O)O)ccc1N [4-Amino-3-Methyl Benzoic Acid]	15.8 min	–	–	–
COc1cc(C=CC(=O)O)cc(OC)c1O [3,5-Dimethoxy-4-Hydroxy Cinnamic Acid]	50.2 min	75.3	–	–
CC(=O)c1cccc2ccccc12 [1-Acetonaphthone]	6.54 min	6.69	–	–
Nc1cccc(Oc2ccccc2)c1 [3-Phenoxyaniline]	12.5 min	43.0	–	–
O=C1CC(c2ccccc2)Oc2ccccc21 (centres unmarked) [2-Phenylchromanone (Flavanone), 2-Phenylchromanone]	50.2 min	–	–	–
CC(=O)Oc1c[nH]c2ccccc12 [3-Acetoxyindole]	5.90 min	25.1	–	–
COC(=O)[C@@H](N)Cc1ccc(O)cc1 [Tyrosine Methyl Ester]	43.0 min	–	–	–
Oc1ccc2ccccc2c1 [2-Hydroxynaphthalene]	23.2 min	30.1	–	–
Cc1ccc2[nH]cc(C[C@H](N)C(=O)O)c2c1 [5-Methyl-tryptophan]	23.2 min	–	–	–
Nc1ccc(F)cc1 [4-Fluoro Aniline]	12.0 min	–	–	–
O=C(O)C(O)Cc1c[nH]c2ccccc12 (centres unmarked) [3-Indolelactic acid]	6.40 min	–	–	–
COc1cc(/C=C/CO)ccc1O[C@@H]1O[C@H](CO)[C@@H](O)[C@H](O)[C@H]1O [Coniferin]	15.1 min	50.2	–	–
Cc1c[nH]c2ccccc12 [3-Methyl Indole]	20.1 min	–	–	–
Nc1ccc(CCO)cc1 [4-Amino Phenylethyl Alcohol]	10.8 min	–	–	–
Nc1ncnc2nc[nH]c12 [Adenine]	27.4 min	50.2	–	–
Nc1ccc(C=CC(=O)O)cc1 [4-Amino Cinnamic Acid]	16.7 min	50.2	–	–
Nc1ccccc1CO [2-Amino Benzyl Alcohol]	3.96 min	–	–	–
O=C1c2ccccc2-c2ccccc21 [Compound 9-Fluorenone, 9-Fluorenone]	43.0 min	–	–	–
COc1ccc2c(C)c(C)[nH]c2c1 [6-Methoxy-2,3-dimethyl Indole]	23.2 min	43.0	–	–
4-Ethoxyphenyl-2-furyl ketone	11.2 min	12.5	–	–

Molecule	Half-Life of ADR Destruction, 100 μM Test Compound and 0.5 μM Riboflavin [1]	Half-Life of ADR Destruction, 100 μM Test Compound [2] [min]	Half-Life of ADR Destruction, 100 μM Test Compound and 0.5 μM Riboflavin [min]	Half-Life of ADR Destruction, 100 μM Test Compound [min]
O=C(O)c1ccc2c(c1)C(=O)c1ccccc1-2 [9-Fluorenone-2-carboxylic acid]	43.0 min	–	–	–
NCCc1ccc(O)c(O)c1 [3,4-Dihydroxy Phenethylamine (Dopamine), 3,4-Dihydroxy Phenethylamine]	301.0 min	–	–	–
COc1cccc(O)c1 [3-Methoxy Phenol]	–	43.0	–	–
O=C(O)c1ccc(C(=O)c2ccccc2)cc1 [4-Benzophenone-carboxylic acid]	–	–	7.72	10.0
O=C(O)CCC(=O)c1ccc(-c2ccccc2)cc1 [Fenbufen, reference compound]	12.0 min	12.5	–	–
O=c1c2ccccc2oc2ncccc12 [1-Azaxanthrone]	2.60 min	2.87	–	–
Nc1cc(C[C@H](N)C(=O)O)ccc1O [3-Amino-4-Hydroxy Phenylalanine]	100.3 min	–	–	–
NC1c2ccccc2-c2ccccc21 [9-Amino Fluorene]	50.2 min	75.3	–	–
O=S(O)c1ccccc1 [Benzenesulfinic acid]	15.8 min	–	–	–
O=C(O)C(C(=O)O)c1ccsc1 [Thiophene-3-malonic acid]	43.0 min	–	–	–
Nc1cccc2cc(S(=O)(=O)O)ccc12 [5-Amino-2-naphthalenesulfonic acid]	–	50.2	–	–
CN1C(C(=O)Nc2ccccn2)=C(O)c2ccccc2S1(=O)=O [Piroxicam, reference compound]	10.4 min	100.3	–	–
COc1ccc(C=O)c2ccccc12 [4-Methoxy-1-naphthaldehyde]	1.19 min	1.15	–	–
COc1ccc2[nH]c3ccccc3c(=O)c2c1 [2-Methoxy-9(10H) Acridone]	–	–	16.7	23.2
Nc1ccc([N+](=O)[O-])cc1[N+](=O)[O-] [2,4-Dinitro Aniline]	–	–	50.2	75.3
COc1ccc2c(C(=O)O)cccc2c1 [6-Methoxynaphthalene-1-carboyxlic acid]	4.49 min	18.8	–	–
Nc1cccc(C(=O)O)c1 [3-Amino Benzoic Acid]	16.7 min	–	–	–
Nc1ccc(S(N)(=O)=O)cc1 [4-Amino Benzenesulfonamide]	–	–	25.1	–
c1ccc2c3c([nH]c2c1)CCCCCC3 [2,3-Cyclooctenoindole]	15.8 min	–	–	–
Nc1ccc(O)c(C(=O)O)c1 [3-Amino-6-Hydroxy Benzoic Acid]	301.0 min	–	–	–
